In one assay the target is T1, SAPK4/p38d (Homo sapiens, UniProt O15264).
T1 sequence (O15264 1-365): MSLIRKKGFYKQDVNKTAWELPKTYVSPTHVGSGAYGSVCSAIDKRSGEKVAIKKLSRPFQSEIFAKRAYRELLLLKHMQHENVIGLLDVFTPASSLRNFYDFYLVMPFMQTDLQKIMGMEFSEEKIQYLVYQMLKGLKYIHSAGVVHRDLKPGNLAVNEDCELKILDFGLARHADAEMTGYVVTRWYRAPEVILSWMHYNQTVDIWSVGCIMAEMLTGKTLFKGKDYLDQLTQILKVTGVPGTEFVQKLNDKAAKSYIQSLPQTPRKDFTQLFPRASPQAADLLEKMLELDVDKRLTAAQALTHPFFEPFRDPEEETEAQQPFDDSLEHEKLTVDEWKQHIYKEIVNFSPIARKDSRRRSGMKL
In words: Protein kinase activity in the presence of compound. Format: biochemical. The settings on record: read-out: Residual activity SAPK4/p38d. The method, then: (§1) The action of the compound of formula (14) was tested on a selection of 29 different protein kinases. The activity of these enzymes was measured in the presence of 10 μM of compound, according to the general methodology described by Bain et al. (2003) Biochem. J. 371:199-204 and Davies et al. (2000) Biochem. J. 351:95-105.
(§2) Residual enzyme activity of protein kinases in the presence of inhibitor compounds at the concentration given (expressed as a percentage of the activity measured in the absence of inhibitors). The results obtained for gossypol and gossypolone are given by way of comparison.

For another assay, the system named is CK1. The assay is described as above. Format: biochemical. The settings on record: 10 μM compound; percentage of the activity measured in the absence of inhibitors. The method, then: as §1, §2
The next assay concerns p70 S6K. The assay is described as above. Format: biochemical. The settings on record: 10 μM compound; percentage of the activity measured in the absence of inhibitors. On the procedure: as §1, §2
Another assay deals with CK2 (Homo sapiens, UniProt P68400). The description is as above. Format: biochemical. The settings on record: read-out: Residual activity CK2. On the procedure:
as §1, §2

A further assay has as its target CSK (Homo sapiens, UniProt P41240). Described as above. Format: biochemical. The settings on record: read-out: Residual activity CSK. On the procedure: as §1, §2
Another assay deals with PKB?ph. The description is as above. Format: biochemical. The settings on record: 10 μM compound; percentage of the activity measured in the absence of inhibitors. The method, then:
as §1, §2

A further assay deals with T2, PDK1 (Homo sapiens, UniProt O15530).
T2 sequence (O15530 1-556): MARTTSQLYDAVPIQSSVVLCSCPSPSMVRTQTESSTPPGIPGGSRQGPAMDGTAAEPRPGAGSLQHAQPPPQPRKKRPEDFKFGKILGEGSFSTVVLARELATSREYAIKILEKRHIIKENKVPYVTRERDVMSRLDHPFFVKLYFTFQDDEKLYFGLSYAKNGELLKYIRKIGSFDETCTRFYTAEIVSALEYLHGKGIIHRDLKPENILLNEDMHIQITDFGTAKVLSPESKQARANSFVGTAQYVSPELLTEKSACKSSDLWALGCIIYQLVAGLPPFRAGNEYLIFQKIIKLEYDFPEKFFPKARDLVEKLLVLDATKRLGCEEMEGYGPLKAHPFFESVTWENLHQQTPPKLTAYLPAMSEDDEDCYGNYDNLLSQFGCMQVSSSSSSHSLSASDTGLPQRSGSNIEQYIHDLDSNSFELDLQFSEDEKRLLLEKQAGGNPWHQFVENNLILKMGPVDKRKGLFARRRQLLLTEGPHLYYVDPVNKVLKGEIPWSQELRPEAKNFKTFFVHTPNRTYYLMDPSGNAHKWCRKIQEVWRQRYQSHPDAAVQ
Described as above. Format: biochemical. The settings on record: read-out: Residual activity PDK1. On the procedure: as §1, §2

Another assay has as its target PKCa (Homo sapiens, UniProt P17252). The description is as above. Format: biochemical. The settings on record: read-out: Residual activity PKCa. The method, then:
as §1, §2

The next assay has as its target T3, SGK (Homo sapiens, UniProt O00141).
T3 sequence (O00141 1-431): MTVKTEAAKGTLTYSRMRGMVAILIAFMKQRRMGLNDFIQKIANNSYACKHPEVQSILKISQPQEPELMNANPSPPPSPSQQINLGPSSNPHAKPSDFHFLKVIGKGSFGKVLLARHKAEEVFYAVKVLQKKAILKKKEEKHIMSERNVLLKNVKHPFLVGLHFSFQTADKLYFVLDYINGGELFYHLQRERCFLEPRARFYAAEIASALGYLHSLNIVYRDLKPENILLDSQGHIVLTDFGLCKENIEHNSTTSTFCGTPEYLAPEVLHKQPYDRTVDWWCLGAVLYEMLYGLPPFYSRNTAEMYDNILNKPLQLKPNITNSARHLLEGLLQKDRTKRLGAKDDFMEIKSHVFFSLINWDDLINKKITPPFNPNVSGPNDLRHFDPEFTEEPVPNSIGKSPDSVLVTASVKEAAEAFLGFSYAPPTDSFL
The description is as above. Format: biochemical. The settings on record: for remaining activity at 10 µM: read-out: Residual activity SGK. On the procedure:
as §1, §2

A further assay addresses DYRK1a (Homo sapiens, UniProt Q13627). Described as above. Format: biochemical. The settings on record: read-out: Residual activity DYRK1a. The method, then: as §1, §2
A further assay concerns KB tumour cell line. In words: Cytotoxicity vis-à-vis the KB tumour cell line. Format: cell-based. The settings on record: Homo sapiens. On the procedure: The cytotoxicity of the compound vis-à-vis the KB tumour cell line was measured as is described in Dao et al. (2003) Bioorg. Med. Chem. 11:2001-2006.
Where [1] appears, read: 10 μM compound, percentage of the activity measured in the absence of inhibitors.

Like-named read-outs stand apart in the source and are kept apart here.

We go through 4 compounds from patent US7851510B2, “Gossypol derivatives, production method thereof and uses of same” (Centre National de la Recherche Scientifique (C.N.R.S.), priority 2004, dated 2010).

CK2, sequence (P68400 whole entry): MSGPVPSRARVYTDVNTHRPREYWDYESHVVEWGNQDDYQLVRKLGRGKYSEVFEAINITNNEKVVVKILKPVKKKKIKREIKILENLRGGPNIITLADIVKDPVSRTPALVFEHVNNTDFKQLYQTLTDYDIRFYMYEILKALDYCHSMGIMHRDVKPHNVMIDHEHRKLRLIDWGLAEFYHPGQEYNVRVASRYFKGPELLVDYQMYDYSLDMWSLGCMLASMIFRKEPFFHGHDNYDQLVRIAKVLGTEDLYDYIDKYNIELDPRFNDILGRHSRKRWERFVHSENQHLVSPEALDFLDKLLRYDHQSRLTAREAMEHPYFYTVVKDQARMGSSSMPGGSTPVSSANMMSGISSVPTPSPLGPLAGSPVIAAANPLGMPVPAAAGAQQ
CSK, sequence (P41240 whole entry, species assumed): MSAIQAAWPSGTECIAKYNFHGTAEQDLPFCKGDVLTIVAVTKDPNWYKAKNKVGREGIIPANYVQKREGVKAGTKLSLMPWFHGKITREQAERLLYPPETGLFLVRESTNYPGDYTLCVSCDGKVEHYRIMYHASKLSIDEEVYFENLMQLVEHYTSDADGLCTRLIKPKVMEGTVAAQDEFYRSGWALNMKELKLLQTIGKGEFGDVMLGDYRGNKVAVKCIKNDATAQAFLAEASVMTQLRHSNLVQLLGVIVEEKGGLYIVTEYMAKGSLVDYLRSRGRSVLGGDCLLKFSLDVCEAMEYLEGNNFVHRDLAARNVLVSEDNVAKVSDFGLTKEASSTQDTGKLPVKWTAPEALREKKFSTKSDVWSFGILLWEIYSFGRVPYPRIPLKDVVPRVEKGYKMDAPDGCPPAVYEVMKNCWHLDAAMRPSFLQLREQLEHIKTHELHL

With `CC1=C(C2=C(C)C(=O)c3c(c(O)c(O)c(O)c3C(C)C)C2=O)C(=O)c2c(O)c(O)c(O)c(C(C)C)c2C1=O` [Compound (4), 6,7,8,6′,7′,8′-hexahydroxy-5,5′-diisopropyl-3,3′-dimethyl-[2.2′]binaphthalenyl-1,4,1′,4′-tetraone], the remaining activity at 10 µM on SAPK4/p38d turned out to be 88%; at CK2, 80%; at CSK it was 93%; at PDK1, 88%; at PKCa, 85%; at SGK, 4%. The remaining activity at 10 µM at DYRK1a was determined as 25%. Moreover, in the assay with CK1, the “Residual activity CK1” value turned out to be 88%. Also, in the assay on p70 S6K, the “Residual activity p70 S6K” value stood at 34%. In the assay with PKB?ph, the “Residual activity PKB?ph” value turned out to be 39%. Besides, on SGK (10 μM compound), the “Reduction of the activity of SGK” value came to 96%. Besides, the IC50 (in general, the concentration needed to halve the response being measured) in the assay on KB tumour cell line is 1000 nM.

Take `CC1=C(C2=C(C)C(=O)c3c(c(CSCCO)c(O)c(O)c3C(C)C)C2=O)C(=O)c2c(CSCCO)c(O)c(O)c(C(C)C)c2C1=O` [Compound (14), 6,7,6′,7′-tetrahydroxy-8,8′-bis-(2-hydroxy-ethylsulphanylmethyl)-5,5′-diisopropyl-3,3′-dimethyl-[2,2′]binaphthalenyl-1,4,1′,4′-tetraone]: the remaining activity at 10 µM at SAPK4/p38d (setting [1]) was 85%; on CK2 (setting [1]), 85%; on CSK (setting [1]) it was 60%; on PDK1 (setting [1]), 65%; on PKCa (setting [1]) it was 86%; at SGK (setting [1]), 7%. In addition, the remaining activity at 10 µM at DYRK1a (setting [1]) was 16%. Moreover, in the assay on CK1, the “Residual activity CK1” value is 77%. Further, in the assay with p70 S6K, the “Residual activity p70 S6K” value is 52%. In addition, the “Residual activity PKB?ph” value in the assay on PKB?ph was 76%. Besides, the “Reduction of the activity of SGK” value at SGK (10 μM compound) is listed as 93%.

For `Cc1cc2c(C(C)C)c(O)c(O)c(C=O)c2c(O)c1-c1c(C)cc2c(C(C)C)c(O)c(O)c(C=O)c2c1O` [Gossypol, gossypol], the remaining activity at 10 µM at SAPK4/p38d came to 66%; on CK2, 80%; on CSK it was 103%; at PDK1, 71%; on PKCa, 96%; on SGK it was 14%. Also, the remaining activity at 10 µM at DYRK1a was found to be 21%. The “Residual activity CK1” value in the assay on CK1 worked out at 89%. In addition, in the assay on p70 S6K, the “Residual activity p70 S6K” value is listed as 110%. Besides, the “Residual activity PKB?ph” value in the assay on PKB?ph stood at 94%.

Consider `CC1=C(C2=C(C)C(=O)c3c(c(C=O)c(O)c(O)c3C(C)C)C2=O)C(=O)c2c(C=O)c(O)c(O)c(C(C)C)c2C1=O` [Gossypolone, gossypolone, reference compound], for which the remaining activity at 10 µM at SAPK4/p38d was 75%; at CK2, 79%; at CSK it was 64%; at PDK1 it was 51%; at PKCa, 78%; at SGK, 3%. In addition, the remaining activity at 10 µM on DYRK1a turned out to be 27%. The “Residual activity CK1” value in the assay on CK1 is 64%. Moreover, the “Residual activity p70 S6K” value in the assay with p70 S6K stood at 35%. In addition, the “Residual activity PKB?ph” value in the assay on PKB?ph was determined as 53%.
